Results on eight compounds are retold here after patent US12139503B2, “Borylated amino acid compositions for use in boron neutron capture therapy and methods thereof” (TAE Life Sciences, priority 2020, dated 2024).

Assay [1] relates to FaDu cells. Put plainly: Cellular retention of TLS00190, TLS00178 and BPA-Fructose in FaDu cells. It counts as cell-based, human. The protocol: Subsequently, to determine whether the efflux mediated by either LAT1 or LAT2 or other transporters is equal for BPA-fructose relative to TLS00192 in cellular retention tests in FaDu cells. The “time zero” sample was immediately harvested following an initial two (2) hour incubation with the compounds. Cells were then harvested at indicated times and subjected to lysis, boron measurement, and protein content. Data is expressed as % residual boron content of time zero amount. In addition, the retention of TLS00190 and TLS00178 following initial 2 hour uptake compared to BPA-Fructose was also studied in FaDu cells.

The subject of assay [2] is FaDu cells. Description: Boron uptake of TLS00190 and TLS00178 in FaDu cells. The note with it: two (2) hour incubation. It counts as cell-based, human. The text has this: (§1) The FaDu cell line is a human nasopharyngeal carcinoma cell line. The cell line was obtained from the American Type Culture Collection (“ATCC”), located at 10801 University Boulevard Manassas, VA 20110-2209 USA in 2019. It has ATCC designation of HTB-43™ and lot number 70014320. FaDu cells are propagated in DMEM culture medium supplemented with 10% fetal bovine serum with routine passage by trypsinization and reseeding. The cell line is cryopreserved in liquid nitrogen.
Additionally, boron measurement was performed by ICP OES. on an Agilent 5110 ICP-OES. The data was analyzed using Agilent's ICP Expert Software, version 7.4.2.10790. Boron was measured axially at the 249.772 nm wavelength and the internal standard Beryllium was measured axially at the 313.042 nm wavelength. Beryllium internal standard was spiked into the solution at 1:5 the flowrate before introduction to the spray chamber via a T-connector. […]
The efficiency of boron uptake of TLS00190 and TLS00178 was determined using FaDu cells. Following a two (2) hour incubation, cells were harvested and suspended in ice cold PBS and a portion was lysed in RIPA buffer and protein content determined by BCA assay. […] After two (2) hours of incubation the amount of the compounds taken up was determined based on the boron measurements.

Assay [3] deals with FaDu cells. Description: Cellular retention of TLS00192 and BPA-fructose in FaDu cells. It counts as cell-based, human. The note with it: sixteen (16) hours after initial 2 hour incubation.
Description: as §1
(§2) Additionally, boron measurement was performed by ICP OES. on an Agilent 5110 ICP-OES. The data was analyzed using Agilent's ICP Expert Software, version 7.4.2.10790. Boron was measured axially at the 249.772 nm wavelength and the internal standard Beryllium was measured axially at the 313.042 nm wavelength. Beryllium internal standard was spiked into the solution at 1:5 the flowrate before introduction to the spray chamber via a T-connector. Finally, A standard curve using 1000, 100, 10, 1 and 0 ppb of boron was used to calculate the concentration of boron in each sample.
Subsequently, to determine whether the efflux mediated by either LAT1 or LAT2 or other transporters is equal for BPA-fructose relative to TLS00192 in cellular retention tests in FaDu cells. […] Data is expressed as % residual boron content of time zero amount.

Assay [4] relates to FaDu nasopharnygeal squamous carcinoma cells. Description: Kinetic parameters of boron uptake in FaDu cells (ICP-OES). The note with it: Michaelis-Menton non-linear regression. It counts as cell-based, human. The text has this:
To investigate the ability of TLS00192 to deliver boron to FaDu nasopharnygeal squamous carcinoma cells, we interrogated a range of concentrations bracketing what is hypothsized to be physiologically relevant amounts for boronophenylalanine (BPA), currently the most widely studied boron drug in BNCT clinical practice.
The FaDu cell line is a human nasopharyngeal carcinoma cell line. The cell line was obtained from the American Type Culture Collection (“ATCC”), located at 10801 University Boulevard Manassas, VA 20110-2209 USA in 2019. It has ATCC designation of HTB-43™ and lot number 70014320. […]
Additionally, boron measurement was performed by ICP OES. on an Agilent 5110 ICP-OES. The data was analyzed using Agilent's ICP Expert Software, version 7.4.2.10790. Boron was measured axially at the 249.772 nm wavelength and the internal standard Beryllium was measured axially at the 313.042 nm wavelength. […]
To determine the kinetic parameters of TLS00192, Boron compounds were added to FaDu cells at the final concentration of 2.5 mM in HBSS and the cells were incubated at 37° C., in a humidified 5% CO2 atmosphere for two (2) hrs with shaking. Following two (2) hour incubation, cells were harvested and suspended in ice cold PBS and lysed in RIPA buffer and protein content determined by BCA assay. […] Results were expressed as ng boron/per mg cell protein/per minute. […]

A further assay concerns intracranial tumor. The note with it: BNCT with beam directed to surgically exposed intracranial tumor; cited from earlier work.
A further assay has as its target T1, LAT-1 (Homo sapiens, UniProt Q01650).
T1 construct: host or cells: FaDu human nasopharyngeal carcinoma cells
Put plainly: LAT-1 mediated competition studies, boron uptake in FaDu cells. The class given is cell-based. The note with it: HBSS, 2 hours, 37° C.
Description: as §1, §2
It has been shown that the system L transporter (LAT-1) mediates the transport of L-amino acids into cells and plays a major role in the uptake of BPA in BPA-based BNCT (WONGTHAI, et. al. Cancer Sci Vol. 106, pg. 279-286, 2015). To assess whether TLS00192 is transported via LAT-1 dependent mechanism we interrogated its ability to be outcompeted by the LAT1 substrate L-Phe FaDu cells were incubated in HBSS medium for two (2) hours at 37° C. with 0.5 mM of either TLS00192 or BPA-fructose in the absence (Subset A) or presence of increasing concentrations of competitor Phe (Subset B), L-system antagonist BCH (Subset C) or LAT-1 specific inhibitor JPH203 (Subset D). The cells were harvested, and the amount of each boronated cell associated compound was determined by ICP OES. The IC50s for the respective inhibitor on each compound is also indicated. BPA was used as a positive control for LAT-1-mediated uptake.

[5] abbreviates: twenty (20) hrs after initial 2 hour uptake.
The mark [6] stands for this setting: 0.5 mM BPA-fructose as substrate, read-out: IC50 of competitor on boron uptake of BPA-Fructose.
Where [7] appears, read: 0.5 mM TLS00192 as substrate, read-out: IC50 of competitor on boron uptake of TLS00192.

Read-outs that look alike come from different tables or passages of the source.

T1 sequence (Q01650 whole entry): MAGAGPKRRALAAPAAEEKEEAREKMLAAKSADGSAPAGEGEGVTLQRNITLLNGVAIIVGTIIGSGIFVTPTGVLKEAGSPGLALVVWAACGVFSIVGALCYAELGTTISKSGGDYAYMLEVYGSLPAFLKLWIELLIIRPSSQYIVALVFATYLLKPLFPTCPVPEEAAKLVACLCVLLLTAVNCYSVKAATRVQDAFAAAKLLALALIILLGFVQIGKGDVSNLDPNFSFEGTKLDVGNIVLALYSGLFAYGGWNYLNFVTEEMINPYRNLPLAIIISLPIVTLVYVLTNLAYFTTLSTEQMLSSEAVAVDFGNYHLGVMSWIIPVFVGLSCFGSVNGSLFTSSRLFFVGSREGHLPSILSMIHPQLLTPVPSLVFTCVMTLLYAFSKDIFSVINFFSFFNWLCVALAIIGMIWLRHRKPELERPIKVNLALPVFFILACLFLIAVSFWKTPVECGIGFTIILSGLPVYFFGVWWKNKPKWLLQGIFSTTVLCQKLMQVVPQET
T1 sequence (P08195 102-630 partner): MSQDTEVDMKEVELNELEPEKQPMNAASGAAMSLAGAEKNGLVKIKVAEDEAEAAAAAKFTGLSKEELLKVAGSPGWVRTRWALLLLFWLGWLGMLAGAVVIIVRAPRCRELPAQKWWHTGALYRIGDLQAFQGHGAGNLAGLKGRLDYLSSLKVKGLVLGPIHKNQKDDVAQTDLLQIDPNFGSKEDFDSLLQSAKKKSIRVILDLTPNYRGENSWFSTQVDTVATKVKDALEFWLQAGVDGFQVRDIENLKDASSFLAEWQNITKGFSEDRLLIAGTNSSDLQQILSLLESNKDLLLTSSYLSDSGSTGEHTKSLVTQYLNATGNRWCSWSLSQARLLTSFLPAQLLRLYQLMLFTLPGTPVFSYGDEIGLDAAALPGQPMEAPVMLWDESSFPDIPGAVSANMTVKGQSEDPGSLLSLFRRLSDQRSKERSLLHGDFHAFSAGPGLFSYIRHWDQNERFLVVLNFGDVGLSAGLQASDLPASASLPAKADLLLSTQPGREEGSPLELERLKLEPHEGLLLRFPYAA

For the compound `COCCOCCOc1ccc(C[C@H](N)C(=O)O)cc1` [TLS00190], the “retention, cellular level remaining” value with FaDu cells [1] (setting [5]) came to 43%; in the assay with FaDu cells [1] (two (2) hours after initial 2 hour uptake) it was 14%. In the assay on FaDu cells [2], the “boron uptake (ng boron per mg protein), result in words” value is given as “retain the ability to be transported into FaDu cancer cells”.
Turning to `N[C@@H](Cc1ccc(O)c(B(O)O)c1)C(=O)O` [TLS00192], in the assay with FaDu cells [3], the “% residual boron content of time zero amount” value is “greater than 40%”. In addition, the Km in assay [4] (2 hr incubation in HBSS at 37° C.) is 1970 µM. In assay [4] (2 hr incubation), the “apparent Vmax” value came to 15.87 ng boron mg^−1 min^−1.
For undecahydrododecaborane thiol [BSH], the 5-year survival rate in the assay with intracranial tumor is 58%.
As to `N[C@@H](Cc1ccc(B(O)O)cc1)C(=O)O` [BPA, 4-Borono-L-phenylalanine], in the assay on FaDu cells [3], the “% residual boron content of time zero amount” value is reported as “approximately 10%”.
On to `NC1(C(=O)O)CC2CCC1C2` (stereo not shown) [BCH, 2-aminobicyclo-(2,2,1)-heptane-2-carboxylic acid], for which the figures for the IC50 at LAT-1 (setting [6]) and on LAT-1 (setting [7]) were 140 µM and 800 µM, respectively.
For `Nc1cc(COc2c(Cl)cc(C[C@H](N)C(=O)O)cc2Cl)c2oc(-c3ccccc3)nc2c1` [JPH203], the IC50 on LAT-1 (0.5 mM BPA-fructose as substrate, read-out: IC50 of inhibitor on LAT1-mediated uptake of BPA) was 0.78 µM; on LAT-1 (0.5 mM TLS00192 as substrate, read-out: IC50 of inhibitor on LAT1-mediated uptake of TLS00192) it was 0.19 µM.
For `CNC(=O)[C@@H](N)Cc1c[nH]cn1` [TLS00178], the “retention, cellular level remaining” value in the assay on FaDu cells [1] (setting [5]) is on record as 57%. Also, the “boron uptake (ng boron per mg protein), result in words” value with FaDu cells [2] is given as “retain the ability to be transported into FaDu cancer cells”.
In the case of `N[C@@H](Cc1ccccc1)C(=O)O` [L-Phe, phenylalanine], the figures for the half-inhibitory concentration (IC50) at LAT-1 (setting [6]) and on LAT-1 (setting [7]) were 40 µM and 430 µM, respectively.
